Results: patent US12036215B2, “Antitumor agent and method for tumor therapy” (TAIHO PHARMACEUTICAL CO., LTD., priority 2018, dated 2024)

How the values were obtained:
tumor = conditions: rats, 24 hours later MK-5108 orally twice per day for 2 days; cited from earlier work
[1] = test system: small-cell lung cancer (SCLC); conditions: paclitaxel once per week; MLN8237 twice per day for 3 days, 4 days off; cited from earlier work
[2] = Phase 1 clinical dose escalation trial with paclitaxel: safety, dose-limiting toxicity; format: in vivo, human
Method: (§1) Paclitaxel and compound I in the form of hydrochloride were administered to cancer patients and evaluated for safety and efficacy. This study was conducted targeting solid cancer patients for whom a standard treatment is not effective, or a treatment is not present. Cancers found to affect the patients included the carcinoma shown in FIG. 3 (urothelial cancer, adrenal cancer, pancreatic cancer, colon cancer, cervical cancer, bile duct cancer, hepatocellular carcinoma, prostate cancer, head and neck cancer, ovarian cancer, gallbladder cancer, non-small cell lung cancer, parotid gland cancer, breast cancer, and fallopian tube cancer). This study also corresponds to a phase 1 clinical dose escalation trial for mainly evaluating safety and determining a recommended dose (RD), that can be administered safely without a concerned side effect in a phase 1 clinical expansion cohort test to be performed on a carcinoma basis.
(§2) A weekly administration regimen was adopted to paclitaxel, in which paclitaxel was administered once per week for 3 weeks, followed by cessation of the drug for 1 week. This administration method is a standard paclitaxel administration regimen and is widely used in clinical practice. On the other hand, the compound I was administered twice per day for 2 or 3 or 4 days from the same day as paclitaxel administration or 1 day after paclitaxel administration; this regimen was performed for 3 weeks together with the weekly paclitaxel administration; and week 4 was set to cessation of the compound I, in accordance with the cessation of paclitaxel. Each administration schedule (dose level) was evaluated from results of administration to 2 to 7 patients.

solid cancer = test: Phase 1 clinical dose escalation trial with paclitaxel: tumor reduction effect (RECIST); format: in vivo, human; conditions: for cases in which a tumor reduction effect was observed: equal dose per day
Method: as §1
In addition to the evaluation of safety, a therapeutic effect on tumor was also evaluated, if possible. The therapeutic effect on tumor was determined as a tumor reduction effect by comprehensive evaluation of target lesions (lesions equal to or larger than a measurable size according to a slice width by CT, etc.) and non-target lesions (all lesions other than the target lesions) with reference to the RECIST evaluation method (Journal of the National Cancer Institute, 2000, Vol 92, No. 3, 205-216J). The dose of the compound I is a weight based on free form.
In this study, PR (partial response) refers to 30% or more decrease in the sum of the major axis of target lesions, compared to that before administration. PD (progressive disease) refers to 20% or more relative increase in the sum of the major axis of target lesions, compared to the smallest sum of the major axis recorded after the start of the study, 5 mm or more absolute increase in the sum of the major axis, or apparent exacerbation of existing non-target lesions or a new lesion. SD (stable disease) refers to insufficient tumor reduction to qualify for PR and insufficient increase to qualify for PD, without progression and exacerbation of tumor, compared to the smallest sum of the major axis recorded after the start of the study.
as §2

Aurora A = molecular target: T1, Aurora A (Homo sapiens, UniProt O14965); conditions: cited from earlier work
T1 sequence (O14965 1-403): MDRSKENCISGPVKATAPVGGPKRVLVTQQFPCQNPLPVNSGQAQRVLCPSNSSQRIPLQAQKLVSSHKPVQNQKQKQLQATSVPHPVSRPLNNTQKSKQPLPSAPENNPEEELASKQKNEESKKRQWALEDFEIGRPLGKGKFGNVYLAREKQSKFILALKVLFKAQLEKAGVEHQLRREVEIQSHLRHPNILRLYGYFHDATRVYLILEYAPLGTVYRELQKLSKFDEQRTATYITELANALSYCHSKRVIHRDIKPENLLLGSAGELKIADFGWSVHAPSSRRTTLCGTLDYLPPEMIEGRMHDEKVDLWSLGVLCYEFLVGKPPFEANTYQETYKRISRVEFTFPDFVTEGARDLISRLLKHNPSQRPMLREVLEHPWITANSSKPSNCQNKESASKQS

[3] = in vivo; cited from earlier work
[4] = test system: Human-derived uterus cancer cell line HeLa-luc; test: Schedule study of combined use of compound I and paclitaxel in HeLa-luc grafted nude rats; format: in vivo; conditions: group 1: paclitaxel 10 mg/kg i.v. on day 1 alone; 5 rats
Source text: Human-derived uterus cancer cell line HeLa-luc (PerkinElmer, Inc.) cells transfected with luciferase gene were subcutaneously grafted at 1×10^7 cells to the right abdomens of nude rats (lineage: F344/NJcl-rnu/rnu, female, distributor: CLEA Japan, Inc.). When the volume of the grafted tumor reached approximately 200 mm^3, the rats were divided into groups each consisting of 5 rats according to stratified randomization such that each group had almost the same tumor volume.
To group 1, paclitaxel (10 mg/kg) alone was intravenously administered on day 1. To groups 2 to 5, paclitaxel was administered and, on the next day, the hydrochloride of the compound I (30 mg/kg, based on free form) obtained in Reference Example 1 was orally administered twice per day for 1 day, 2 days, 3 days or 4 days (Sequential treatment; see FIG. 1). […]
The presence or absence of a therapeutic effect was determined by measuring the major axis and minor axis of tumor with time and calculating a tumor volume (TV), relative tumor volume (RTV) and T/C (%) value (average relative tumor volume ratio of the treatment group to the control group) on day 10 after initiation of administration, according to the following formulas. […]

Structure (SMILES): O=C(O)[C@]1(Cc2cccc(Nc3nccs3)n2)CC[C@@H](Oc2cccc(Cl)c2F)CC1 [MK-5108]
- effect on side effect of docetaxel (tumor): without exacerbating the side effect of docetaxel
- effect on tumor reduction effect of docetaxel (tumor): tumor reduction effect of docetaxel is enhanced

Structure (SMILES): COc1cc(Nc2ncc3c(n2)-c2ccc(Cl)cc2C(c2c(F)cccc2OC)=NC3)ccc1C(=O)O [alisertib]
- adverse events [1]: serious adverse events such as neutropenia was found
- efficacy in combination with paclitaxel [1]: effective for small-cell lung cancer

Structure (SMILES): Cc1cc(Nc2nc(CC3(C(=O)O)CCN(C(=O)c4cccc(Cl)c4Cl)CC3)ccc2F)n[nH]1 [compound I, 1-(2,3-dichlorobenzoyl)-4-[5-fluoro-6-(5-methyl-1H-pyrazol-3-ylamino)pyridin-2-yl]methyl-4-piperidinecarboxylic acid]
- patients with dose-limiting toxicity (DLT) ([2]; DL1: paclitaxel 90 mg/m^2/day weekly, compound I 25 mg/dose twice per day for 4 days from same day as paclitaxel, 3 weeks): two out of three
- tolerability determination of the dose level ([2]; DL1: paclitaxel 90 mg/m^2/day, compound I 25 mg/dose twice per day for 4 days): exceed the maximum tolerable dose
- tolerability determination of the dose level ([2]; DL2: paclitaxel 70 mg/m^2/day, compound I for 2 days): tolerable
- patients with dose-limiting toxicity (DLT) ([2]; DL2: paclitaxel 70 mg/m^2/day, compound I for 2 days from 1 day after paclitaxel): not observed in any of three cases
- tolerability determination of the dose level ([2]; DL6: paclitaxel 80 mg/m^2/day, compound I 75 mg per dose twice per day for 3 days): most suitable as the maximally tolerated dose
- patients with grade 3 or higher dose-limiting toxicity ([2]; DL6: paclitaxel 80 mg/m^2/day, compound I 75 mg per dose twice per day for 3 days from day following paclitaxel): not observed in any of seven cases
- tolerability determination of the dose level ([2]; DL7: paclitaxel 80 mg/m^2/day, compound I 100 mg per dose twice per day for 3 days): exceed the maximum tolerable dose
- patients with dose-limiting toxicity (DLT) ([2]; DL7: paclitaxel 80 mg/m^2/day, compound I 100 mg per dose twice per day for 3 days from day following paclitaxel): two out of three
- tolerability ([2]; compound I 2 consecutive days, 75 mg per dose, total 300 mg per week, with paclitaxel): tolerable without the dose-limiting toxicity
- patients in which a tumor reduction effect was observed (solid cancer; 2 on 5 off schedule, 6 out of 12 patients, with paclitaxel): 50%
- cases that had PR (solid cancer; 2 on 5 off schedule, one out of 12 cases, with paclitaxel): 8.3%
- cases that manifested PR (solid cancer; 3 on 4 off schedule (dose levels 6 and 7), 3 out of 8 cases, with paclitaxel): 38%
- patients in which a tumor reduction effect was observed (solid cancer; 3 on 4 off schedule, 7 out of 8 patients, with paclitaxel): 88%
- number of patients with PR (partial response) (solid cancer; all dose levels, 22 evaluable cases, combination with paclitaxel): 5
- cases in which a tumor reduction effect was observed (solid cancer; 2 on 5 off (dose level 5), 1 out of 3 cases, with paclitaxel): 33%
- cases in which a tumor reduction effect was observed (solid cancer; 3 on 4 off (dose level 6), 4 out of 5 cases, with paclitaxel): 80%
- Aurora A selective inhibitory activity (Aurora A): excellent
- oral absorbability [3]: excellent in oral absorbability

Structure (SMILES): CC(=O)O[C@H]1C(=O)[C@@]2(C)[C@H]([C@H](OC(=O)c3ccccc3)[C@]3(O)C[C@H](OC(=O)[C@H](O)[C@@H](NC(=O)c4ccccc4)c4ccccc4)C(C)=C1C3(C)C)[C@]1(OC(C)=O)CO[C@@H]1C[C@@H]2O [paclitaxel]
- number of CR (complete remission) cases [4]: no CR cases were observed
